{"source": "patent US4950739A", "about": "(priority 1988, dated 1990)", "key": {"[1]": {"test_system": "calcium channel reconstituted in a lipid bilayer", "assay_type": "biochemical, guinea pig", "conditions": "for concentration at which single channels were blocked: cerebellar-origin channel, 80 mM BaCl2 cis / 120 mM CsCl trans; for calcium channel activity of the reconstituted channel: concentration not given"}, "[2]": {"test_system": "low-threshold calcium channel in central neurons", "conditions": "Tang C-M., et al., Science, 240:213; cited from earlier work"}, "[3]": {"test_system": "low-threshold calcium channel", "test": "Low-threshold calcium channel isolated on amiloride gel, lipid bilayer", "assay_type": "biochemical, Guinea pig", "conditions": "250micromolar", "protocol": "Guinea pig cerebellar material was processed as in Example 7. It was then purified according to the method of Example 8 except that the amiloride gel chromatography was performed after the factor-coupled gel chromatography. (The latter chromatographic purification was thus used to remove the high-threshold channel recognized by the active factor of the present invention.)\nThe low-threshold calcium channel was eluted from the amiloride gel using 400 mM sucrose, 10 mM HEPES (pH 7.4) containing 1 mM amiloride.\nThe channel activity of the thus-purified gel was tested as described above by the lipid bilayer technique. The channel has an estimated conductance of about 8 pS, is characterized by rapid openings (of the order of 1-100 msec at […]), is rapidly inactivated (within about 1 sec at the same depolarization), and was blocked by cadmium (250micromolar)."}, "[4]": {"test_system": "calcium channel in vesicles", "test": "Calcium uptake into quin-2-loaded vesicles (fluorescence)"}}, "note": "Where two headings read alike, the source gives them in different places."}
{"smiles": "COC(=O)C1=C(C)NC(C)=C(C(=O)OC)C1c1ccccc1[N+](=O)[O-]", "note": "[nifedipine]", "values": [{"measurement": "effect on the isolated calcium channels", "setting": "[1]; 5×10^-6 M", "result": "neither blocker had an effect"}]}
{"smiles": "N=C(N)NC(=O)c1nc(Cl)c(N)nc1N", "note": "[amiloride, 3,5-diamino-N-(aminoiminomethyl)-6-chloropyrazine carboxamide]", "values": [{"measurement": "block of low-threshold calcium channel", "setting": "[2]", "result": "specifically blocks"}]}
{"smiles": "[Cd]", "note": "[cadmium]", "values": [{"measurement": "low-threshold channel activity", "setting": "[3]", "result": "blocked"}, {"measurement": "uptake of calcium into the vesicles", "setting": "[4]; 50 micromolar, calcium 2 mM additions", "result": "blocked"}, {"measurement": "intravesicular fluorescence over time", "setting": "[4]; 100 micromolar before addition of 2 mM CaCl2", "result": "did not increase with time and remained at the baseline"}, {"measurement": "concentration at which single channels were blocked", "setting": "[1]", "result": "less than 100 micromolar"}, {"measurement": "calcium channel activity of the reconstituted channel", "setting": "[1]", "result": "blocked"}, {"measurement": "calcium channel activity of the reconstituted channel", "setting": "[1]; listed as Cd^++", "result": "completely blocked"}]}
{"smiles": "[Co]", "note": "[cobalt]", "values": [{"measurement": "Calcium Conductance", "setting": "[1]; 100 mM CaCl2 pH 7.5 and 20 M × 10^-6 Co^++ outside only, voltage range ±200", "result": "none"}, {"measurement": "concentration at which single channels were blocked", "setting": "[1]", "result": "less than 100 micromolar"}, {"measurement": "calcium channel activity of the reconstituted channel", "setting": "[1]", "result": "blocked"}, {"measurement": "calcium channel activity of the reconstituted channel", "setting": "[1]; listed as Co^++", "result": "completely blocked"}]}
